Data published in patent US5935597A, “Drug delivery devices and methods for treatment of viral and microbial infections and wasting syndromes” (Cryopreservation Technologies CC, priority 1995, dated 1999).

Tests used:
[1] = Example 7: plasma/blood DMF level in HIV-1 patients treated with DMF dermal patches; format: in vivo; conditions: human, blood, topical or ocular, 14000 mg
Experimental: Two skin patches were applied to different parts of the patient's body, for example to the forearm. […] The gel served to prevent leakage of liquid DMF from the patches. […] For a patient weighing about 60 kg, an amount of about 14 g over a period of 12 hours is required to produce a level of 100 ppm. Based on studies by Marz and Nohova the surface area required to absorb this amount in about 127,2 cm^2. […] Absorption capability varies from patient to patient depending on factors such as skin-type and skin thickness.
(§1) Each patch was applied for a period of 12 hours, either once per week over a period of 12 weeks, or twice per week over a period of 6 weeks.
Daily full clinical and psychological evaluations were also conducted.

[2] = test system: CD4 T-cell; experiment: Example 7: CD4 T-cell counts in blood of HIV-1 patients; format: in vivo, human; conditions: certain patients; increase from 350; transdermal DMF
Experimental: as §1
(§2) Blood tests in certain patients indicated an increase in CD4 T-cell counts from 350 to 1000, and a rapid reduction of PCR (Polymerase chain reaction) (viral load) of 120,000 to 500/ml within three weeks with as little as three treatments. […] The PCR test conducted was the Roche amplicor HIV monitor. A viral load of <500/ml plasma is considered to be undetectable.
(§3) A daily virological serology workout to establish total body virus count and to monitor improvements in the immune status of the patient (CD4+ T-helper cells) and prognostic factors were also conducted. The serology workout was based on p24 antigen and quantitative PCR or, optionally, by other methods. A weekly determination of CD4 counts and […] was also conducted specifically to monitor improvements in the patient's immune status and prognosis. All clinical and laboratory data were fed into a centralized data system to facilitate rapid response to any detrimental change so as to curtail treatment to maximize clinical effect and minimize potential side effects.

[3] = test system: HIV-1; experiment: Example 7: HIV-1 viral load by quantitative PCR (Roche amplicor HIV monitor); format: in vivo, human; conditions: certain patients; reduction from 120,000; within three weeks, as little as three treatments
Experimental: as §1, §2, §3

[4] = test system: virus particles, e.g. the capsid; reverse transcriptase; protease; experiment: In vitro tests of DMF on virus particles
[5] = test system: CD4+ T cell; experiment: Example 8 pilot study: CD4+ T cell count (Coulter analysis); format: in vivo, human
Experimental: (§4) A pilot study was conducted to evaluate the efficacy of transdermal DMF in the treatment of patients infected with HIV. Informed consent was obtained from each patient. Seropositive status was verified by Western blot using a commercial kit for detecting antibodies to p24 (Abbott Diagnostics) and the presence of HIV-1 was documented by quantitative PCR using a commercial kit (Roche Amplicor).
(§5) Dermal patches 9 cm in diameter were used within 12 hours of manufacture. […] The patches were visually inspected to verify the absence of leakage and were weighed on an analytical balance to verify less than 10% deviation from a total mass of 8.153 g. The patches were applied to the skin of the forearm and secured with Elastoplast™ bandages. Either one or two patches were used for the initial dose, as determined from the predicted skin transfer rate of 9.4 mg/cm^2 /hr and the patient's body weight.
(§6) A staged dose of DMF was used, with two-hourly blood and urine sampling to determine peak plasma DMF levels. […] Initial evaluation included daily determination of:
c) Coulter analysis of CD4+ and CD8+ counts and CD4/CD8 ratio;

[6] = test system: HIV-1; experiment: Example 8 pilot study: HIV-1 load by quantitative PCR (Roche Amplicor); format: in vivo, human
Experimental: as §4, §5, §6
d) Quantitative estimates of HIV-1 load by PCR (Roche Amplicor) and analysis of antibody to p24 (Abbott);

[7] = Example 8 pilot study: body weight; format: in vivo, human
Experimental: as §4, §5, §6
a) vital signs and body weight;

[8] = test system: HIV; experiment: Example 8 pilot study: clinical condition and Karnofsky performance scale in HIV infected patients; format: in vivo, human
Experimental: as §4, §5, §6
b) clinical checklist and Karnofsky score;
(See Karnofsky et al., […], Cancer 1:634-656). […] Additional anti-microbial therapy for secondary infections was rarely needed. […] Clinical improvement correlated well with disease status as assessed by viral load and CD4+ T cell count.

[9] = Physicochemical properties of DMF; conditions: gel patches
[10] = cited from earlier work
[11] = test system: HIV; conditions: certain cultured cell lines; cited from earlier work
[12] = test system: Human Herpes Virus 6 (HHV-6); conditions: certain cultured cell lines; cited from earlier work
[13] = test system: transformed cells; conditions: in vitro, certain transformed cells; cited from earlier work
[14] = test system: malignant cells; conditions: cells treated in vitro, then inoculated into nude mice; cited from earlier work
[15] = water, alcohols and some hydrocarbons; cited from earlier work

## CN(C)C=O [DMF, N,N'-dimethylformamide]
[1]
  concentration at 12 h: 100 µg/mL
[2]
  CD4 T-cell count: 1000
[3]
  PCR viral load: 500 mL⁻¹
[4]; in vitro
  effect on virus particles: it appears that the solvent properties of DMF dissolve the virus particles, e.g. the capsid
[4]; it appears as if
  apparent mode of action: acts as at least one of a reverse transcriptase inhibitor and a protease inhibitor
[5]; Patient 1, after 7 weeks, from 39
  CD4+ T cell count: 138 cells/μl
[5]; Patient 2, after 9 weeks, from 460
  CD4+ T cell count: 720 cells/μl
[5]; Patient 3, after 9 weeks, from 140
  CD4+ T cell count: 640 cells/μl
[5]; Patient 4, after 18 weeks, from 249
  CD4+ T cell count: 450 cells/μl
[5]; Patient 5, after 19 weeks, from 260
  CD4+ cell count: 450 cells/μl
[5]; Patient 6, after 5 weeks, from 354
  CD4+ T cell count: 396 cells/μl
[5]; Patient 7, after 9 treatments, initial 29
  CD4+ T cell count: 35 cells/μl
[5]; Patient 7, after the first treatment, initial 29
  CD4+ T cell count: 14 cells/μl
[5]; Patient 8, after 8 weeks, from 200
  CD4+ T cell count: 240 cells/μl
[5]; after 42 days, Gompertz curve fit, seven out of eight patients
  increase in CD4+ T cell counts: 73.4%
[6]; Patient 1, after 7 weeks, from 222,000
  PCR-measured viral load: 160,000 copies/ml
[6]; Patient 2, after 9 weeks, from 29,000
  PCR-measured viral load: 13,000 copies/ml
[6]; Patient 3, after 9 weeks, from 250,000
  PCR-measured viral load: 50,000 copies/ml
[6]; Patient 4, after 18 weeks, from 13,000
  PCR-measured viral load: 4,000 copies/ml
[6]; Patient 5, after 19 weeks, from 120,000
  PCR-measured viral load: 24,000 copies/ml
[6]; Patient 6, after 5 weeks, from 156,000
  PCR-measured viral load: 13,000 copies/ml
[6]; Patient 7, after 9 treatments, initial 1,156,000
  PCR-measured viral load: 9,000 copies/ml
[6]; Patient 8, after 8 weeks, from 1,200,000
  PCR-measured viral load: 250,000 copies/ml
[6]; after 42 days, Gompertz curve fit, five out of eight patients
  decline in PCR-measured viral load: 88.8%
[7]; Patient 1, after 7 weeks, from 74.2
  body weight: 100 kg
[7]; Patient 2, after 9 weeks, from 58.4
  body weight: 63.0 kg
[7]; Patient 3, after 10 weeks, from 81.9
  body weight: 96.0 kg
[7]; Patient 4, after 18 weeks, from 81.5
  body weight: 90.4 kg
[7]; Patient 5, after 19 weeks, from 75.4
  body weight: 84.6 kg
[7]; Patient 6, after 5 weeks, from 56.0
  body weight: 58.0 kg
[7]; Patient 7, after 9 treatments, from 46.5
  body weight: 49.0 kg
[7]; Patient 8, after 8 weeks, from 48.1
  body weight: 52.2 kg
[7]; all patients
  weight gain: All the patients gained weight
[8]; 8 patients
  need for additional anti-microbial therapy for secondary infections: rarely needed
  neurological symptoms and Herpes viral infections: Improvement in neurological symptoms and Herpes viral infections was remarkable
[8]; 8 patients, before and after treatment (FIG. 4)
  general condition, Karnofsky performance scale: every patient showed improved general condition
[8]; Patient 1, after 7 weeks
  clinical outcome: appetite had improved, the respiratory difficulties had resolved, the patient appeared clinically well and started exercising again
[8]; Patient 2, after 9 weeks
  clinical outcome: herpetic sores had resolved, the limb pains had disappeared and the patient appeared clinically well
[8]; Patient 3, after 10 weeks
  clinical outcome: the patient was clinically well and no longer complained of pain in the limbs
[8]; Patient 4, after 18 weeks
  clinical outcome: The patient appeared clinically well and had no active medical complaints
[8]; Patient 5, after 19 weeks
  clinical outcome: The secondary infections had resolved and the patient appeared clinically well
[8]; Patient 6, after 5 weeks
  clinical outcome: The patient was clinically well
[8]; Patient 7, after 9 treatments
  clinical outcome: The patient felt well and had returned to full-time employment
[8]; Patient 8, after 8 weeks
  clinical outcome: the Herpes lesions had entirely resolved
[8]; after 2-3 weeks of treatment
  clinical improvement: Virtually all patients showed clinical improvement
[8]; within the first 14 days of DMF treatment
  general fatigue and appetite: marked improvement in general fatigue and in appetite
[9]
  evaporation: evaporates rapidly
[10]; dermal, oral and inhalation
  acute toxicity: low acute dermal, oral and inhalation toxicity
[10]; in vivo
  hepatic toxicity: reversible hepatic damage
  mutagenicity and carcinogenicity: not thought to be a mutagen or a carcinogen
  skin and eye irritation: mild to moderate skin and eye irritant
  skin sensitization: no indication of skin sensitizing properties
  teratogenicity: teratogenic
[11]
  in vitro replication of HIV: inhibit in vitro replication of HIV
[12]
  in vitro replication of HHV-6: inhibit in vitro replication of HIV and Human Herpes Virus 6 (HHV-6)
[13]
  differentiation: in vitro differentiating agent
[14]
  tumorigenicity: reduce their tumorigenicity
[15]
  miscibility: freely miscible with water, alcohols and some hydrocarbons
